Tested on: CcrM from Moraxella lincolnii
Assay: radiochemical DNA methylation assay
Type: biochemical, Lwoffella lincolnii
Conditions: read-out: M. lincolnii IC50; DNA and AdoMet as substrates

## NSC317003 [NSC 2]
  IC50: 45.8 ± 3.2 µM

Reference: PMC12019475 (ACS Omega, 2025)
